Columns and labels:
[1] = target: T1, Human secretory PLA2 (Homo sapiens, UniProt P14555); assay: Secretory PLA2 inhibitory activity (diheptanoyl thio PC substrate, absorbance at 405 nm); format: biochemical; conditions: diheptanoyl thio PC 1 mM, Triton X100 0.3 mM, pH 7.3, CaCl2 10 mM, 30 minutes, read-out: s-PLA2 Inhibition IC50
T1 sequence (P14555 21-144): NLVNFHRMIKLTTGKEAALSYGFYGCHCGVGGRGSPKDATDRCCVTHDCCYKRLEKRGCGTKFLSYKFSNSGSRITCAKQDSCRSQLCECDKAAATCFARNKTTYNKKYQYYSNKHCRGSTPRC
Method: Secretory PLA2 activity was assayed according to the method described in Penynolds L. J., Hughes L. L., Dennis E. A. et al. Anal. Biochem. 201,190-197 (1992).
Diheptanoyl thiophosphatidylcholine which was prepared according to the procedure described in the literature was used as a substrate. Human secretory PLA2 was used as an enzyme. The diheptanoyl thio PC (1 mM) was reacted with the human secretory PLA2 in the presence of Triton X100 (0.3 mM) and 5,5'-dithiobis-(2-nitrobenzoic acid) (125 μM) in Tris buffer (25 mM, pH 7.3), CaCl2 (10 mM), KCI (100 mM), bovine serum albumin (1.0 mg/ml), and then the change in absorbance at 405 nm at the time of 30 minutes after the reaction was assayed.
Inhibitory activity (%) was estimated by the formula: [(the change in absorbance with the inhibitor and PLA2 ·the change in absorbance with the inhibitor and without PLA2)/(the change in absorbance without the inhibitor and with PLA2 ·the change in absorbance without the inhibitor and PLA2)]×100.
IC50 value (μM) was calculated from graph showing inhibitory values on the vertical axis and log of concentrations of the inhibitor on the horizontal axis.

[2] = target: T2, intracellular PLA2 (cytosolic PLA2, cPLA2) (Homo sapiens, UniProt P47712); assay: Intracellular PLA2 (cPLA2) inhibitory activity (14C-arachidonyl phosphatidylcholine substrate); format: biochemical; conditions: 2 μM radiolabelled phosphatidylcholine, 1 μM dioleoylglycerol, 1 mM CaCl2, pH 7.4; read-out: c-PLA2 Inhibition IC50
T2 sequence (P47712 1-749): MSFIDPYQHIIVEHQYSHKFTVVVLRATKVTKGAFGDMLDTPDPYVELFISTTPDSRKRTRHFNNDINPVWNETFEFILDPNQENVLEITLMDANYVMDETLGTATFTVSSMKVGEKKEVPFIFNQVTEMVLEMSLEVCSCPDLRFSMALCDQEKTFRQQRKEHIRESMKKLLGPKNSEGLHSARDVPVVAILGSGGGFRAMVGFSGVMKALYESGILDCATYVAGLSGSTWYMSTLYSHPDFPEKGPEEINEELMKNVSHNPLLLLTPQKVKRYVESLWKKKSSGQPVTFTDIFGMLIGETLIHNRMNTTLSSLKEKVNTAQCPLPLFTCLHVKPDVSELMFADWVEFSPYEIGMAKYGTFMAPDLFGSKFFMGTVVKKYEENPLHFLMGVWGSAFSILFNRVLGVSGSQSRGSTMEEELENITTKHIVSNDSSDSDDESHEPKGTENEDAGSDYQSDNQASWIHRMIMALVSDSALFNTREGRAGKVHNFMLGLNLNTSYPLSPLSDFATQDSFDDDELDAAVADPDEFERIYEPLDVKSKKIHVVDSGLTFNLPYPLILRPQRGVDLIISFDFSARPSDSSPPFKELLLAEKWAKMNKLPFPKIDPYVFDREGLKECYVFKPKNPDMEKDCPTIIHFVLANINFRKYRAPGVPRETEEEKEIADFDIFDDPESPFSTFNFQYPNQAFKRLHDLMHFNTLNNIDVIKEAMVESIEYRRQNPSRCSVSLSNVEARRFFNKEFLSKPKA
Method: cPLA2 activity was assayed according to the method described in R. M. Kramer, E. F. Roberts, J. Manetta and J. E. Putnam, J. Biol. Chem., 268 (8), 5268-5272 (1991). Briefly, intracellular PLA2 activity was assayed using supersonic treated […] which contain 1-palmitoyl-2-[^14 C]arachidonyl-sn-glycero-3-phosphocholine and sn-1, 2-dioleoylglycerol at a molar ratio of 2:1. This test mixture contained 1 mM CaCl2, 2 mM dithiothreitol, 150 mM NaCl, 50 mM Hepes, pH 7.4 and 0.1 mg/ml BSA. A substrate is a 2 μM radioisotope labelled phosphatidylcholine ribosome containing 1 μM dioleoylglycerol. IC50 value is calculating in the same manner as in calculating it for secretory PLA2 inhibitory activity.

| Compound | IC50 [1] | IC50 [2] |
| --- | --- | --- |
| COc1c(C)c(OC(=O)c2c(C)c(C)c(OCCCCCCOc3ccc(Cl)cc3)c(C)c2OC)c(C)c(C)c1C(=O)O [Example 11, 4-[4-[6-(4-Chlorophenoxy)hexyloxy]-2-methoxy-3,5,6-trimethylphenylcarboxy]-2-methoxy-3,5,6-trimethylbenzoic acid] | 14 µM | 4.8 µM |
| COc1c(C)c(OC(=O)c2c(C)c(C)c(OCCCSc3ccc(F)cc3)c(C)c2OC)c(C)c(C)c1C(=O)O [Example 10, 4-[4-[3-(4-Fluorophenylthio)propyloxy]-2-methoxy-3,5,6-trimethylphenylcarboxy]-2-methoxy-3,5,6-trimethylbenzoic acid] | 13 µM | 13 µM |
| COc1c(C)c(OC(=O)c2c(C)c(C)c(OCCCN(S(C)(=O)=O)S(C)(=O)=O)c(C)c2OC)c(C)c(C)c1C(=O)O [Example 60, 4-[4-(3-bis-Methylsulfonylaminopropoxy)-2-methoxy-3,5,6-trimethylbenzoyloxy]-2-methoxy-3,5,6-trimethylbenzoic Acid] | 28 µM | > 50 µM |
| COc1c(C)c(OC(=O)c2c(C)c(C)c(OCCCCCCS(=O)(=O)c3ccc(F)cc3)c(C)c2OC)c(C)c(C)c1C(=O)O [Example 6, 4-[4-[6-(4-Fluorophenylsulfonyl)hexyloxy]-2-methoxy-3,5,6-trimethylphenylcarboxy]-2-methoxy-3,5,6-trimethylbenzoic acid] | 9 µM | 12 µM |
| CCc1ccc(OCCCOc2c(C)c(C)c(C(=O)Oc3c(C)c(C)c(C(=O)O)c(OC)c3C)c(OC)c2C)cc1 [Example 30, 4-{4-[3-(4-Ethylphenoxy)propoxy]-2-methoxy-3,5,6-trimethylbenzoyloxy}-2-methoxy-3,5,6-trimethylbenzoic Acid] | 16 µM | 5.4 µM |
| COc1c(C)c(OC(=O)c2c(C)c(C)c(OCCCOc3ccc4ccccc4c3)c(C)c2OC)c(C)c(C)c1C(=O)O [Example 19, 4-[2-Methoxy-3,5,6-trimethyl-4-[3-(2-naphthyloxy)-propyloxy]phenylcarboxy]-2-methoxy-3,5,6-trimethylbenzoic acid] | 16 µM | 1.8 µM |

Now those with a lower IC50 [1], led by results:

| IC50 [1] | IC50 [2] | Compound |
| --- | --- | --- |
| 5 µM | 31 µM | COc1c(C)c(OC(=O)c2c(C)c(C)c(OCCCOc3ccc(C(N)=O)cc3)c(C)c2OC)c(C)c(C)c1C(=O)O [Example 42, 4-{4-[3-(4-Carbamoylphenoxy)propoxy]-2-methoxy-3,5,6-trimethylbenzoyloxy}-2-methoxy-3,5,6-trimethylbenzoic Acid] |
| 6.4 µM | 25 µM | COc1c(C)c(OC(=O)c2c(C)c(C)c(OCCCN3C(=O)c4ccccc4C3=O)c(C)c2OC)c(C)c(C)c1C(=O)O [Example 64, 4-{4-[3-(1,3-Dioxo-1,3-dihydroisoindol-2-yl)-propoxy]-2-methoxy-3,5,6-trimethylbenzoyloxy}-2-methoxy-3,5,6-trimethylbenzoic Acid] |
| 6.9 µM | 10 µM | COc1c(C)c(OC(=O)c2c(C)c(C)c(OCCCOc3ccc4c(c3)OCO4)c(C)c2OC)c(C)c(C)c1C(=O)O [Example 28, 4-{4-[3-(Benzo[1, 3]dioxol-5-yloxy)propoxy]-2-methoxy-3,5,6-trimethylbenzoyloxy}-2-methoxy-3,5,6-trimethylbenzoic Acid] |
| 0.29 µM | > 50 µM | COc1c(C)c(OC(=O)c2c(C)c(C)c(OCCCOc3ccc(C(N)=O)cc3)c(C)c2OC)c(C)c(C)c1C(N)=O [Example 45, 4-{4-[3-(4-Carbamoylphenoxy)propoxy]-2-methoxy-3,5,6-trimethylbenzoyloxy}-2-methoxy-3,5,6-trimethylbenzamide] |
| 6 µM | 20 µM | COc1c(C)c(OC(=O)c2c(C)c(C)c(OCCCN(C)S(=O)(=O)c3ccccc3)c(C)c2OC)c(C)c(C)c1C(=O)O [Example 53] |

Source: patent US5534533A, “Carboxylate derivatives exhibiting phospholipase A2 inhibitory activity” (Shionogi & Co., Ltd., priority 1993, dated 1996)
